Laboratory results published in PubChem BioAssay (NCI).
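Briefly, cells in 96-well plates were exposed to five compound concentrations for 48 h, and endpoints were estimated by linear interpolation. TGI marks complete inhibition of growth.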

Tests used:
Assay in all cases: growth of human tumour cells (NCI), 48 h
786-0 renal = test system: 786-0 renal
A498 renal = test system: A498 renal
A549 NSCLC = test system: A549 NSCLC
ACHN renal = test system: ACHN renal
BT-549 breast = test system: BT-549 breast
CAKI-1 renal = test system: CAKI-1 renal
CCRF-CEM leukemia = test system: CCRF-CEM leukemia
COLO 205 colon = test system: COLO 205 colon
DU-145 prostate = test system: DU-145 prostate
EKVX NSCLC = test system: EKVX NSCLC
HCC-2998 colon = test system: HCC-2998 colon
HCT-116 colon = test system: HCT-116 colon
HCT-15 colon = test system: HCT-15 colon
HL-60(TB) leukemia = test system: HL-60(TB) leukemia
HOP-62 NSCLC = test system: HOP-62 NSCLC
HOP-92 NSCLC = test system: HOP-92 NSCLC
HS 578T breast = test system: HS 578T breast
HT29 colon = test system: HT29 colon
IGROV1 ovarian = test system: IGROV1 ovarian
K-562 leukemia = test system: K-562 leukemia
KM12 colon = test system: KM12 colon
LOX IMVI melanoma = test system: LOX IMVI melanoma
M14 melanoma = test system: M14 melanoma
MALME-3M melanoma = test system: MALME-3M melanoma
MCF7 breast = test system: MCF7 breast
MDA-MB-231 breast = test system: MDA-MB-231 breast
MDA-MB-435 = test system: MDA-MB-435
MDA-N = test system: MDA-N
MOLT-4 leukemia = test system: MOLT-4 leukemia
NCI-H226 lung = test system: NCI-H226 lung
NCI-H23 lung = test system: NCI-H23 lung
NCI-H460 lung = test system: NCI-H460 lung
NCI-H522 lung = test system: NCI-H522 lung
NCI/ADR-RES ovarian = test system: NCI/ADR-RES ovarian
OVCAR-3 ovarian = test system: OVCAR-3 ovarian
OVCAR-4 ovarian = test system: OVCAR-4 ovarian
OVCAR-5 ovarian = test system: OVCAR-5 ovarian
OVCAR-8 ovarian = test system: OVCAR-8 ovarian
PC-3 prostate = test system: PC-3 prostate
RPMI-8226 leukemia = test system: RPMI-8226 leukemia
RXF 393 renal = test system: RXF 393 renal
SF-268 CNS = test system: SF-268 CNS
SF-295 CNS = test system: SF-295 CNS
SF-539 CNS = test system: SF-539 CNS
SK-MEL-2 melanoma = test system: SK-MEL-2 melanoma
SK-MEL-28 melanoma = test system: SK-MEL-28 melanoma
SK-MEL-5 melanoma = test system: SK-MEL-5 melanoma
SK-OV-3 ovarian = test system: SK-OV-3 ovarian
SN12C renal = test system: SN12C renal
SNB-19 CNS = test system: SNB-19 CNS
SNB-75 CNS = test system: SNB-75 CNS
SR leukemia = test system: SR leukemia
SW-620 colon = test system: SW-620 colon
T-47D breast = test system: T-47D breast
TK-10 renal = test system: TK-10 renal
U251 CNS = test system: U251 CNS
UACC-257 melanoma = test system: UACC-257 melanoma
UACC-62 melanoma = test system: UACC-62 melanoma
UO-31 renal = test system: UO-31 renal
DLD-1 colon = test system: DLD-1 colon
DMS 114 small cell lung = test system: DMS 114 small cell lung
DMS 273 small cell lung = test system: DMS 273 small cell lung
HOP-18 NSCLC = test system: HOP-18 NSCLC
KM20L2 colon = test system: KM20L2 colon
LXFL 529 NSCLC = test system: LXFL 529 NSCLC
M19-MEL melanoma = test system: M19-MEL melanoma
SNB-78 CNS = test system: SNB-78 CNS

With `Oc1cccc2cc(Br)cnc12` the TGI (786-0 renal) was > 100 µM, the TGI (A498 renal) was > 85 µM and the TGI (A549 NSCLC) was > 100 µM. For the same compound, the TGI (ACHN renal) was > 69.2 µM, the TGI (BT-549 breast) was > 100 µM and the TGI (CAKI-1 renal) was > 100 µM. The TGI (CCRF-CEM leukemia) was 7.81 µM, the TGI (COLO 205 colon) was 97.5 µM and the TGI (DU-145 prostate) was > 100 µM. For the same compound, the TGI (EKVX NSCLC) was 99 µM, the TGI (HCC-2998 colon) was 96.9 µM and the TGI (HCT-116 colon) was > 42.7 µM. The TGI (HCT-15 colon) was > 100 µM, the TGI (HL-60(TB) leukemia) was 4 µM and the TGI (HOP-62 NSCLC) was > 100 µM. The TGI (HOP-92 NSCLC) was 74.2 µM, the TGI (HS 578T breast) was > 92.6 µM and the TGI (HT29 colon) was > 73.1 µM. For the same compound, the TGI (IGROV1 ovarian) was 51.5 µM, the TGI (K-562 leukemia) was 16.1 µM and the TGI (KM12 colon) was > 100 µM. The TGI (LOX IMVI melanoma) was > 39.7 µM, the TGI (M14 melanoma) was 51.8 µM and the TGI (MALME-3M melanoma) was > 100 µM. The TGI (MCF7 breast) was > 100 µM, the TGI (MDA-MB-231 breast) was > 47.1 µM and the TGI (MDA-MB-435) was > 100 µM. For the same compound, the TGI (MDA-N) was > 100 µM, the TGI (MOLT-4 leukemia) was 14.9 µM and the TGI (NCI-H226 lung) was > 100 µM. The TGI (NCI-H23 lung) was > 72.8 µM, the TGI (NCI-H460 lung) was > 70.8 µM and the TGI (NCI-H522 lung) was 9.18 µM. For the same compound, the TGI (NCI/ADR-RES ovarian) was 20.6 µM, the TGI (OVCAR-3 ovarian) was > 26.3 µM and the TGI (OVCAR-4 ovarian) was > 30.4 µM. For the same compound, the TGI (OVCAR-5 ovarian) was > 100 µM, the TGI (OVCAR-8 ovarian) was > 100 µM and the TGI (PC-3 prostate) was > 100 µM. The TGI (RPMI-8226 leukemia) was > 31.4 µM, the TGI (RXF 393 renal) was 88.2 µM and the TGI (SF-268 CNS) was > 33.9 µM. The TGI (SF-295 CNS) was > 100 µM, the TGI (SF-539 CNS) was 57.3 µM and the TGI (SK-MEL-2 melanoma) was > 100 µM. For the same compound, the TGI (SK-MEL-28 melanoma) was > 100 µM, the TGI (SK-MEL-5 melanoma) was 48.1 µM and the TGI (SK-OV-3 ovarian) was > 100 µM. For the same compound, the TGI (SN12C renal) was > 100 µM, the TGI (SNB-19 CNS) was > 100 µM and the TGI (SNB-75 CNS) was > 83.2 µM. For the same compound, the TGI (SR leukemia) was > 52 µM, the TGI (SW-620 colon) was > 100 µM and the TGI (T-47D breast) was > 25.7 µM. The TGI (TK-10 renal) was > 100 µM, the TGI (U251 CNS) was > 100 µM and the TGI (UACC-257 melanoma) was 27.3 µM. For the same compound, the TGI (UACC-62 melanoma) was 29.2 µM and the TGI (UO-31 renal) was > 76.1 µM.
With `C=CC1(NS(=O)(=O)c2ccc(C)cc2)CCC(C(C)(C)C)CC1` (stereo not drawn) the TGI (786-0 renal) was > 100 µM, the TGI (A498 renal) was > 100 µM and the TGI (A549 NSCLC) was > 100 µM. The TGI (ACHN renal) was > 100 µM, the TGI (CAKI-1 renal) was > 100 µM and the TGI (CCRF-CEM leukemia) was > 100 µM. The TGI (COLO 205 colon) was > 100 µM, the TGI (DLD-1 colon) was > 100 µM and the TGI (DMS 114 small cell lung) was > 100 µM. For the same compound, the TGI (DMS 273 small cell lung) was > 100 µM, the TGI (HCC-2998 colon) was > 100 µM and the TGI (HCT-116 colon) was > 100 µM. The TGI (HCT-15 colon) was > 100 µM, the TGI (HL-60(TB) leukemia) was > 100 µM and the TGI (HOP-18 NSCLC) was > 100 µM. For the same compound, the TGI (HOP-62 NSCLC) was > 100 µM, the TGI (IGROV1 ovarian) was > 100 µM and the TGI (K-562 leukemia) was > 100 µM. The TGI (KM12 colon) was > 100 µM, the TGI (KM20L2 colon) was > 100 µM and the TGI (LXFL 529 NSCLC) was > 100 µM. For the same compound, the TGI (M14 melanoma) was > 100 µM, the TGI (M19-MEL melanoma) was > 100 µM and the TGI (MALME-3M melanoma) was > 100 µM. The TGI (MOLT-4 leukemia) was > 100 µM, the TGI (NCI-H226 lung) was > 100 µM and the TGI (NCI-H460 lung) was > 100 µM. The TGI (NCI-H522 lung) was > 100 µM, the TGI (OVCAR-3 ovarian) was > 100 µM and the TGI (OVCAR-4 ovarian) was > 100 µM. The TGI (OVCAR-8 ovarian) was > 100 µM, the TGI (RPMI-8226 leukemia) was > 100 µM and the TGI (RXF 393 renal) was 54.8 µM. For the same compound, the TGI (SF-268 CNS) was > 100 µM, the TGI (SF-539 CNS) was > 100 µM and the TGI (SK-MEL-2 melanoma) was > 100 µM. The TGI (SK-MEL-28 melanoma) was > 100 µM, the TGI (SK-MEL-5 melanoma) was > 100 µM and the TGI (SK-OV-3 ovarian) was > 100 µM. The TGI (SN12C renal) was > 100 µM, the TGI (SNB-19 CNS) was > 100 µM and the TGI (SNB-75 CNS) was 54.1 µM. The TGI (SNB-78 CNS) was > 100 µM, the TGI (SR leukemia) was > 100 µM and the TGI (SW-620 colon) was > 100 µM. The TGI (TK-10 renal) was > 100 µM, the TGI (U251 CNS) was > 100 µM and the TGI (UACC-257 melanoma) was > 100 µM. For the same compound, the TGI (UACC-62 melanoma) was > 100 µM and the TGI (UO-31 renal) was > 100 µM.
`O=c1c2cc(I)ccc2nc(SCc2n[nH]c(=S)o2)n1Cc1ccccc1` showed a TGI (786-0 renal) of 30.3 µM, a TGI (A498 renal) of 34.2 µM and a TGI (A549 NSCLC) of 48.4 µM. The TGI (ACHN renal) was 28.6 µM, the TGI (BT-549 breast) was 37.1 µM and the TGI (CAKI-1 renal) was 22.4 µM. For the same compound, the TGI (CCRF-CEM leukemia) was 43.8 µM, the TGI (COLO 205 colon) was 22.8 µM and the TGI (DU-145 prostate) was 31.1 µM. It also gave a TGI (EKVX NSCLC) of 40.8 µM, a TGI (HCC-2998 colon) of 35.3 µM and a TGI (HCT-116 colon) of 29.4 µM. It also gave a TGI (HCT-15 colon) of 34 µM, a TGI (HL-60(TB) leukemia) of 16.5 µM and a TGI (HOP-62 NSCLC) of 41 µM. It also gave a TGI (HOP-92 NSCLC) of 27.9 µM, a TGI (HS 578T breast) of 44.3 µM and a TGI (HT29 colon) of 66.2 µM. It also gave a TGI (IGROV1 ovarian) of 35.3 µM, a TGI (K-562 leukemia) of 70.8 µM and a TGI (KM12 colon) of 40.4 µM. It also gave a TGI (LOX IMVI melanoma) of 29.1 µM, a TGI (M14 melanoma) of 43.6 µM and a TGI (MALME-3M melanoma) of 34.8 µM. For the same compound, the TGI (MCF7 breast) was 31.7 µM, the TGI (MDA-MB-231 breast) was 33.3 µM and the TGI (MDA-MB-435) was 44.4 µM. For the same compound, the TGI (MDA-N) was 32 µM, the TGI (MOLT-4 leukemia) was 65.3 µM and the TGI (NCI-H226 lung) was 27.6 µM. It also gave a TGI (NCI-H23 lung) of 34.2 µM, a TGI (NCI-H460 lung) of 39.5 µM and a TGI (NCI-H522 lung) of 27.8 µM. It also gave a TGI (NCI/ADR-RES ovarian) of 54.2 µM, a TGI (OVCAR-3 ovarian) of 31.1 µM and a TGI (OVCAR-4 ovarian) of 44.4 µM. It also gave a TGI (OVCAR-5 ovarian) of 52.4 µM, a TGI (OVCAR-8 ovarian) of 40.4 µM and a TGI (PC-3 prostate) of 31.3 µM. The TGI (RPMI-8226 leukemia) was > 100 µM, the TGI (RXF 393 renal) was 10.9 µM and the TGI (SF-268 CNS) was 32.9 µM. The TGI (SF-295 CNS) was 40 µM, the TGI (SF-539 CNS) was 30.3 µM and the TGI (SK-MEL-2 melanoma) was 30.4 µM. It also gave a TGI (SK-MEL-28 melanoma) of 32.3 µM, a TGI (SK-MEL-5 melanoma) of 26.2 µM and a TGI (SK-OV-3 ovarian) of 62.3 µM. The TGI (SN12C renal) was 27.6 µM, the TGI (SNB-19 CNS) was 55.5 µM and the TGI (SNB-75 CNS) was 23.1 µM. For the same compound, the TGI (SR leukemia) was > 100 µM, the TGI (SW-620 colon) was 39.6 µM and the TGI (T-47D breast) was 45.4 µM. It also gave a TGI (TK-10 renal) of 37.7 µM, a TGI (U251 CNS) of 31.4 µM and a TGI (UACC-257 melanoma) of 38.1 µM. For the same compound, the TGI (UACC-62 melanoma) was 25.4 µM and the TGI (UO-31 renal) was 3.43 µM.
